Results on 23 compounds are retold here after US8361998B2, “Compounds and their use as IKACh blockers” (AstraZeneca AB, priority 2010, dated 2013).

Molecules are shown by their SMILES.

In one test the target is T1, human cardiac ion channel proteins hKir3.1/Kir3.4 (Homo sapiens, UniProt P48544+P48549).
T1 construct: expressed in transfected cells
T1 sequence (P48549 1-501): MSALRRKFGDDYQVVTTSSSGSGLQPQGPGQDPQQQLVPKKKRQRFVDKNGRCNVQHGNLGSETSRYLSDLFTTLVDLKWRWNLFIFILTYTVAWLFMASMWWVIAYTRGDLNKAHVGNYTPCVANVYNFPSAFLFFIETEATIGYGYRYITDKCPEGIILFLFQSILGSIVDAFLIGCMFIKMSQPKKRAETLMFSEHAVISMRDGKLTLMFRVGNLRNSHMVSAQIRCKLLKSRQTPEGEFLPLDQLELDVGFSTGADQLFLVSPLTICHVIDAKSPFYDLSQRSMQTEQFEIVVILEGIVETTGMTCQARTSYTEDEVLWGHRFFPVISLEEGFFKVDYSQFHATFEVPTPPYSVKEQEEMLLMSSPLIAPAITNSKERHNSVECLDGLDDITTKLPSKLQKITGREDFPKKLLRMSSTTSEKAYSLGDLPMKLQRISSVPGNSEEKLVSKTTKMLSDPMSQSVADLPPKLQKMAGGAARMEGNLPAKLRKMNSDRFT
T1 sequence (P48544 1-419): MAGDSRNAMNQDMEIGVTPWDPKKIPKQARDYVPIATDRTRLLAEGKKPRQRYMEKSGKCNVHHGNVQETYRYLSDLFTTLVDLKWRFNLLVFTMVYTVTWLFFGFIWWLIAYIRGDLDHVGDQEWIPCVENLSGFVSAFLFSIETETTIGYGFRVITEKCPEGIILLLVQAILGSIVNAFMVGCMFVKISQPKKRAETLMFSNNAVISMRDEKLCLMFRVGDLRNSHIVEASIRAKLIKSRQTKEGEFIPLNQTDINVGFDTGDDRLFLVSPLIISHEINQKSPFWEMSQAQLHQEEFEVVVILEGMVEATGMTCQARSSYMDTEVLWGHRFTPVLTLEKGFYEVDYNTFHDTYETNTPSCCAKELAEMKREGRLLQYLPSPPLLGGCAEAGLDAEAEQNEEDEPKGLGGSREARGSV
Briefly: Atomic Absorption Screening (AAS) Rb efflux assay of hKir3.1/Kir3.4 block, carbachol/high K+ stimulated, 10-pt or 7-pt CR. The class given is cell-based. As to conditions: 7-pt CR (0.037 to 27 μmol/L), AAS Rb efflux, CHO-K1 cells expressing hKir3.1/Kir3.4; mean of >3 replicates; read-out: IKACh IC50 7-pt CR, AAS. An excerpt:
Human KCNJ3 encoding Kir3.1 (Genbank acc. No. NM_002239) was inserted between EcoRI and NotI in the pIRESneo3 vector (Clontech Laboratories, Inc. CA, USA). Human KCNJ5 encoding Kir3.4 (Genbank Acc. No. BC069482) was inserted between EcoR1 and Not1 in the pIRESpuro3 vector (Clontech Laboratories, Inc. CA, USA). A Kozak sequence (GCCACC) was introduced before the start codon ATG of both constructs. Chinese Hamster Ovary K1, CHO-FLP/IN, cells (Invitrogen Corporation, Paisley, UK) were transfected simultaneously using Lipofectamine 2000 reagent (Invitrogen Corporation, Paisley, UK). Geneticin 600 μg/mL (Invitrogen Corporation, Paisley, UK) and puromycin 3 μg/mL (BD Bioscience) were added to the cell culture medium 3 days after transfection. Two weeks after transfection, colonies had appeared and were manually picked and sorted to one cell per well in a 96-well plate. Cells were then tested for Kir3.1 and Kir3.4 expression using membrane potential assay, Western Blot and Immunocytochemistry. […] The cell line was re-sorted by flow cytometry and resulting clones were assayed electrophysiologically using IonWorks (Molecular Devices) and later validated on the Q-Patch (Sophion A/S).
The stable cell line was cultured in DMEM/F12 with Glutamax 1 (Invitrogen Corporation, Paisley, UK), supplemented with foetal bovine serum 10%, puromycin 3 μg/mL, hygromycin 300 μg/mL and geneticin 600 μg/mL (Invitrogen Corporation, Paisley, UK). Care was taken not to seed cells at too low density and cells were passaged at approximately 70-80% confluency. Cells used for patch-clamp experiments were prepared by washing using PBS (—Mg, —Ca^2+), 2 times, detached using Accutase (Sigma). For Q-Patch measurements, storage medium was prepared fresh by adding 1.25 mL of 1M Hepes (GibcoBRL) to 50 mL CHO-SFM II medium (GibcoBRL) and detached cells were diluted to 2 million cells/mL in this medium. Frozen (Cryopreserved) cells were used for Atomic Absorption Screening (AAS) and plated poly-D-lysine 384-well plates (Greiner) at a density of 11,000-13,000 cells/well, the day before assay.
The blocking effects of compounds on the human cardiac ion channel proteins hKir3.1/Kir3.4 were assessed in CHO-K1 cells stably expressing the channel proteins using Atomic Absorption Screening (AAS). Cells were washed and then loaded with 25 μL Rb-loading buffer for three hours at 37° C. After that, the cells were washed again and 25 μL of diluted compound was transferred to the cell plate, incubated for 5 min in RT, and then […] of Carbachol/high K+ (10 μM carbachol and 20 mM KCl final concentration) buffer added to stimulate the cells and open the Kir3.1/Kir3.4 channel. After 10 min stimulation, […] of the supernatant was transferred to a new microplate, 45 μL washing buffer added to the supernatant and the level of Rb in the supernatant was then measured using an Aurora ICR 8000. Compounds were studied at concentrations ranging from 0.003 to 67 μmol/L (dilutions by three, 10-pt CR) or from 0.037 to 27 μmol/L (dilutions by three, 7-pt CR).
Stock solutions of compounds were prepared in DMSO 10 mM and stored at RT. Buffers used for AAS contained (in mM): HEPES 20, NaCl 150, MgCl2 1.0, CaCl2 2.0 and NaH2PO4 0.8 and Glucose 10 (wash 1) or KCl 5 and Glucose 5 (wash 2) or KCl 5 (dilution buffer). The High K^+ channel opener buffer contained (in mM): HEPES 20, NaCl 130, MgCl2 1.0, CaCl2 2.0 and NaH2PO4 0.8 together with KCl 20. Solutions used for Q-Patch (extracellular) in mM: NaCl 145, KCl 4, CaCl2 2.0, MgCl2 1.0, HEPES 10 and glucose 10. The high K^+ extra cellular solution used for Q-Patch in mM: NaCl 96.7, KCl 50.7, CaCl2 2.0, MgCl2 1.0, HEPES 10 and glucose 10 while the intra cellular solution used was (in mM): KCl 120, CaCl2 5.374, MgCl2 1.75, EGTA 10, KOH 3.125, HEPES 10, Na2ATP 4.
Results are given as mean IC50 of >4 replicates (10-pt CR, AAS) or >3 replicates (7-pt CR, AAS). Some of the data in Table 1 are mean values of two or more runs. […]
As usually defined, the IC50 is the concentration that inhibits the measured activity by half. Regarding `CC(C)[C@@H](CN1CCCC1)N(C)C(=O)c1c(F)cccc1C(F)(F)F` [Example 16.19, (S)-2-Fluoro-N-methyl-N-(3-methyl-1-(pyrrolidin-1-yl)butan-2-yl)-6-(trifluoromethyl)benzamide], the IC50 is 14 µM.

For the compound `CC(C)[C@@H](CN1CCCC1)N(C)C(=O)c1ccc(Cl)cc1Cl` [Example 16.47, (S)-2,4-Dichloro-N-methyl-N-(3-methyl-1-(pyrrolidin-1-yl)butan-2-yl)benzamide], the IC50 amounted to 0.56 µM.

Regarding `CC(C)[C@@H](CN1CCCC1)N(C)C(=O)c1cccc(C(F)(F)F)c1` [Example 16.10, (S)—N-Methyl-N-(3-methyl-1-(pyrrolidin-1-yl)butan-2-yl)-3-(trifluoromethyl)benzamide], the IC50 worked out at 2.6 µM.

Regarding `CC(C)[C@@H](CN1CCCCC1)N(C)C(=O)c1cccc(C(F)(F)F)c1` [Example 16.32, N-Methyl-N-[(1S)-2-methyl-1-(piperidin-1-ylmethyl)propyl]-3-(trifluoromethyl)-benzamide], the IC50 was 4 µM.

With `CC(C)[C@@H](CN1CCCC1)N(C)C(=O)c1cc(F)c(F)c(F)c1` [Example 16.21, (S)-3,4,5-Trifluoro-N-methyl-N-(3-methyl-1-(pyrrolidin-1-yl)butan-2-yl)benzamide], the half-maximal inhibitory concentration (IC50) was determined as 12 µM.

For `COc1cc(C(=O)N(C)[C@H](CN2CCCC2)C(C)C)ccc1F` [Example 16.11, (S)-4-Fluoro-3-methoxy-N-methyl-N-(3-methyl-1-(pyrrolidin-1-yl)butan-2-yl)benzamide], the IC50 was 11 µM.

Turning to `Cc1c(F)cccc1C(=O)N(C)[C@H](CN1CCCC1)C(C)C` [Example 16.13, (S)-3-Fluoro-N,2-dimethyl-N-(3-methyl-1-(pyrrolidin-1-yl)butan-2-yl)benzamide], the IC50 stood at 5.3 µM.

Regarding `CC(C)[C@@H](CN1CCCC1)N(C)C(=O)c1ccc(OC(F)(F)F)cc1` [Example 16.15, (S)—N-Methyl-N-(3-methyl-1-(pyrrolidin-1-yl)butan-2-yl)-4-(tri-fluoromethoxy)benzamide], the IC50 came to 2.5 µM.

Still in this test, the particulars now being: 10-pt CR (0.003 to 67 μmol/L), AAS Rb efflux, CHO-K1 cells expressing hKir3.1/Kir3.4; mean of >4 replicates; read-out: IKACh IC50 10-pt CR, AAS.
Turning to `COC[C@@H]1CCCN1C[C@H](C(C)C)N(C)C(=O)c1ccc(OC)cc1` [Example 3.18, 4-Methoxy-N-((S)-1-((S)-2-(methoxymethyl)pyrrolidin-1-yl)-3-methylbutan-2-yl)-N-methylbenzamide], the IC50 came out at 1.9 µM.

On to `Cc1cc(C(=O)N(C)C(CN2CC(O)C2)C2CCCC2)ccc1F` (single isomer, unassigned) [32.4, isomer 2], for which the IC50 stood at 0.98 µM.

Regarding `Cc1cc(C(=O)N(C)[C@H](CN2CCC(C#N)CC2)C(C)C)ccc1F` [Example 26, (S)—N-(1-(4-Cyanopiperidin-1-yl)-3-methylbutan-2-yl)-4-fluoro-N,3-dimethylbenzamide], the IC50 stood at 7 µM.

`CC[C@H](C)[C@@H](CN1CCCC1)N(C)C(=O)c1ccc(Cl)cc1` [Example 2.3, 4-Chloro-N-methyl-N-((2S,3S)-3-methyl-1-(pyrrolidin-1-yl)pentan-2-yl)benzamide]: the IC50 worked out at 1.6 µM.

As to `Cc1cc(C(=O)N(C)C(CN2CC(O)C2)C2CCCC2)ccc1F` (single isomer, unassigned) [32.4, isomer 1], the IC50 worked out at 0.034 µM.

Consider `Cc1c(F)cccc1C(=O)N(C)[C@H](CN1CCCC1)C(C)C` [Example 16.13, (S)-3-Fluoro-N,2-dimethyl-N-(3-methyl-1-(pyrrolidin-1-yl)butan-2-yl)benzamide], for which the IC50 was found to be 14 µM.

For the compound `CCC[C@@H](CN1CC[C@H](O)C1)N(C)C(=O)c1ccc(C#N)cc1` [Example 46.1, 4-Cyano-N-((S)-1-((S)-3-hydroxypyrrolidin-1-yl)pentan-2-yl)-N-methylbenzamide], the IC50 amounted to 8 µM.

With `CN(C(=O)c1ccc(Cl)cc1)[C@H](CN1CC(O)C1)C1CCCCC1` [Example 36.2, 4-Chloro-N-[(1S)-1-cyclohexyl-2-(3-hydroxyazetidin-1-yl)ethyl]-N-methylbenzamide], the IC50 came out at 0.049 µM.

Regarding `CN(C(=O)c1ccc(C#N)cc1)C(CN1CC(O)C1)C1CCCC1` (single isomer, unassigned) [32.5, isomer 1], the IC50 was 0.34 µM.

For the compound `COc1ccc(C(=O)N(C)C(CN2CC(O)C2)C2CCCC2)cc1` (single isomer, unassigned) [32.2, isomer 2], the IC50 was 15 µM.

`CN(C(=O)c1ccc(Cl)cc1)C(C)(C)CN1CCCC1` [Example 16.6, 4-Chloro-N-methyl-N-(2-methyl-1-(pyrrolidin-1-yl)propan-2-yl)benzamide]: the IC50 was determined as 20 µM.

In the case of `Cc1ccc(C(=O)N(C)[C@H](CN2CCC2)C2CC2)cc1C` [Example 9.10, N-[(1S)-2-(azetidin-1-yl)-1-cyclopropylethyl]-N,3,4-trimethylbenzamide], the IC50 worked out at 2.1 µM.

The test is the same for the next values; noted with them: printed as IC50 >67 μM in the 10-pt CR assay or IC50 >27 μM in the 7-pt CR assay; assay format per compound not stated; read-out: IC50.
For `CC(C)[C@@H](CN1CCC(F)(F)C1)N(C)C(=O)c1ccc(Br)cc1` [(S)-4-Bromo-N-(1-(3,3-difluoropyrrolidin-1-yl)-3-methylbutan-2-yl)-N-methylbenzamide], the IC50 is above 27 µM.

For `C[C@@H](CN1CCCC1)N(C)C(=O)c1ccc(Br)cc1` [4-Bromo-N-methyl-N-[(1S)-1-methyl-2-pyrrolidin-1-ylethyl]benzamide], the IC50 was above 27 µM.

`CC(C)[C@@H](CN1C[C@H](O)[C@@H](O)C1)N(C)C(=O)c1ccc(C#N)cc1` [4-Cyano-N-((S)-1-((3S,4S)-3,4-dihydroxypyrrolidin-1-yl)-3-methylbutan-2-yl)-N-methylbenzamide]: the half-inhibitory concentration (IC50) was above 27 µM.

For the compound `CN(C(=O)c1ccc(C#N)cc1)[C@H](CN1CCC1)C1CC1` [N-[(1S)-2-(Azetidin-1-yl)-1-cyclopropyl-ethyl]-4-cyano-N-methyl-benzamide], the IC50 is above 27 µM.
